Test results from patent US7279304B2, “Methods for preparation of macrocyclic molecules and macrocyclic molecules prepared thereby” (President and Fellows of Harvard College, priority 2000, dated 2007).
Read-outs that look alike come from different tables or passages of the source. Where a SMILES comes first, the peptide text is derived from it. [ ]: non-standard residue; d: D form. The star is where a group is joined. ξ: configuration not given here. Butanoyl(3R-OH) = C[C@@H](O)CC(=O)*; dPhLac = O=C(O)[C@H](O)Cc1ccccc1; dOrn = NCCC[C@@H](N)C(=O)O; Hiv = CC(C)[C@H](O)C(=O)O; SCH2CH2NHAc = CC(=O)NCCS*; Orn = NCCC[C@H](N)C(=O)O; ξP = O=C(O)C1CCCN1

How the values were obtained:
[1] = target: T1, TycC TE (excised TE domain protein from the tyrocidine NRPS) (Brevibacillus parabrevis, UniProt O30409); assay type: biochemical; conditions: for cyclization rate compared with the substrate in Example 3: data not shown; for kcat / Km: Table 1, macrocyclization of peptide-SNAC substrate, 25 mM MOPS, pH 7.0; for thioester hydrolysis by TycC TE (result in words): kinetic parameters similar to the wild-type substrate (Ex. 3)
T1 construct: excised TE domain protein from the tyrocidine NRPS (TycC TE); made in house
T1 sequence (O30409 6238-6486): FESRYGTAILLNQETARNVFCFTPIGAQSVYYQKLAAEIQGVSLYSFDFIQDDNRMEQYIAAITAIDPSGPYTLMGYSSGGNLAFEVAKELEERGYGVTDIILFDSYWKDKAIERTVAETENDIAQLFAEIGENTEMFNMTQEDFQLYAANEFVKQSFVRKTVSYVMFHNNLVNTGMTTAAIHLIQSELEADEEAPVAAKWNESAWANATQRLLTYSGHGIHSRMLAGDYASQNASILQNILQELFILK
Method: Macrocyclization reactions were carried out in 25 mM MOPS, pH 7.0 in a total volume of 400 μL. Reactions were initiated by addition of TycC TE and quenched at various time points by the addition of 25 μL 1.7% TFA/water, flash frozen in liquid nitrogen and stored at −80° C. (for Ex. 13, reactions were quenched by the addition of sodium phosphate, pH 5.3, to 100 mM). The reactions were then thawed, 85 μL acetonitrile added, and analyzed by analytical HPLC with monitoring at 220 nm (20% to 80% acetonitrile in 0.1% TFA/water, or in 25 mM potassium phosphate, pH 5.3 for Ex. 13, over 35 minutes, Vydac protein and peptide C18 column). Initial rates were calculated using 1 minute time points. Peptide-SNAC and reaction product concentrations were determined for all Tyr-containing peptides based on the estimated extinction coefficient ε (280 nm)=1,280 M^−1 cm^−1, which agrees with the experimentally determined ε (280 nm) of Ex. 1. For peptide-SNACs not containing Tyr, ε (220 nm) was determined experimentally, and concentrations of corresponding cyclic products determined by assuming equal ε (220 nm) values for the peptide-SNAC and cyclic product.

[2] = target: T2, excised TE domain protein from the surfactin synthetase (Bacillus subtilis, UniProt Q08787); experiment: Cyclization of thioester substrate to macrolactone by excised surfactin synthetase TE domain; assay type: biochemical
T2 construct: the excised TE domain protein from the surfactin synthetase protein system; made in house
From the text: In accord with the present invention, other linear substrate molecules can be cyclized by other excised TE domain proteins besides the TE domain protein excised from the tyrocidine NRPS. […] The excised surfactin TE domain protein selectively cyclizes substrates with the (R)-hydroxybutanamide nucleophile versus substrates with the (S)-hydroxybutamide nucleophile.
The observed specificity of the surfactin TE domain supports that TE domains can cyclize a variety of substrates provided that certain key recognition elements that are generally near the parts of the molecule that are joined in the cyclization reaction are present. For example, substrate 27 contains a change in the sequence of the heptapeptide compared to the wild-type surfactin sequence (D-Leu3 is changed to D-Orn), but this substrate is nevertheless cyclized by the excised TE domain from surfactin synthetase. When the (R)-hydroxybutanamide nucleophile in compound 27 was changed to a (S)-hydroxybutanamide nucleophile (a change near the parts of the molecule joined by the cylization reaction), cyclization activity was abolished.

T2 sequence (Q08787 1059-1271): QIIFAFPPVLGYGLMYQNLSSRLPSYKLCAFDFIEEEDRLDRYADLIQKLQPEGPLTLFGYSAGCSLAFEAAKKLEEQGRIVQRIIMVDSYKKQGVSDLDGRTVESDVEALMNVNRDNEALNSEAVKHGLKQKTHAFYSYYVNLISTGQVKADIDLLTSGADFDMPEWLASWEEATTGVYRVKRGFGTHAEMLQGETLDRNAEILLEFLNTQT

## CC(=O)NCCSC(=O)[C@H](CC(C)C)NC(=O)[C@H](CCCN)NC(=O)[C@@H](NC(=O)[C@H](Cc1ccc(O)cc1)NC(=O)[C@H](CCC(N)=O)NC(=O)[C@H](CC(N)=O)NC(=O)[C@@H](Cc1ccccc1)NC(=O)[C@H](Cc1ccccc1)NC(=O)C1CCCN1C(=O)[C@H](O)Cc1ccccc1)C(C)C (stereo partly drawn) [compound 24] (H-[dPhLac][ξP]F[dF]NQYV[Orn]L-SCH2CH2NHAc)
[1]
  cyclization by TycC TE domain (result in words): macrocyclized

## CC(=O)NCCSC(=O)[C@H](CC(C)C)NC(=O)[C@H](CCCN)NC(=O)[C@@H](OC(=O)[C@H](Cc1ccc(O)cc1)NC(=O)[C@H](CCC(N)=O)NC(=O)[C@H](CC(N)=O)NC(=O)[C@@H](Cc1ccccc1)NC(=O)[C@H](Cc1ccccc1)NC(=O)C1CCCN1C(=O)[C@H](N)Cc1ccccc1)C(C)C (stereo partly drawn) [compound 23] (H-[dF][ξP]F[dF]NQY[Hiv][Orn]L-SCH2CH2NHAc)
[1]
  cyclization rate compared with the substrate in Example 3: similar

## D-Ala-Pro-Phe-D-Phe-Asn-Gln-Tyr-Val-Orn-Leu-SNAC [Example 5]
[1]
  cyclization by TycC TE domain (result in words): arrests cyclization activity
  kcat: 0
  thioester hydrolysis by TycC TE (result in words): observed

## CC(=O)NCCSC(=O)[C@H](CC(C)C)NC(=O)[C@H](CCCN)NC(=O)[C@@H](NC(=O)[C@H](Cc1ccc(O)cc1)NC(=O)[C@H](CCC(N)=O)NC(=O)[C@H](CC(N)=O)NC(=O)[C@@H](Cc1ccccc1)OC(=O)[C@H](Cc1ccccc1)NC(=O)C1CCCN1C(=O)[C@H](N)Cc1ccccc1)C(C)C (stereo partly drawn) [compound 22] (H-[dF][ξP]F[dPhLac]NQYV[Orn]L-SCH2CH2NHAc)
[1]
  cyclization rate compared with the substrate in Example 3: similar

## CC(=O)NCCSC(=O)[C@H](CC(C)C)NC(=O)[C@H](CCCN)NC(=O)[C@@H](NC(=O)[C@H](Cc1ccc(O)cc1)NC(=O)[C@H](CCC(N)=O)NC(=O)[C@H](CC(N)=O)NC(=O)[C@@H](Cc1ccccc1)NC(=O)[C@H](Cc1ccccc1)NC(=O)[C@@H]1CCCN1C(=O)[C@H](N)Cc1ccccc1)C(C)C [Example 3, D-Phe-Pro-Phe-D-Phe-Asn-Gln-Tyr-Val-Orn-Leu-SNAC] (H-[dF]PF[dF]NQYV[Orn]L-SCH2CH2NHAc)
[1]
  Km: 3 µM

## Phe-Pro-Phe-D-Phe-Asn-Gln-Tyr-Val-Orn-Leu-SNAC [Example 4]
[1]
  cyclization by TycC TE domain (result in words): arrests cyclization activity
  kcat: 0
  thioester hydrolysis by TycC TE (result in words): observed

## CC(=O)NCCSC(=O)[C@H](CC(C)C)NC(=O)[C@@H](CC(C)C)NC(=O)[C@H](CC(=O)O)NC(=O)[C@@H](NC(=O)[C@@H](CCCN)NC(=O)[C@H](CC(C)C)NC(=O)[C@H](CCC(=O)O)NC(=O)C[C@@H](C)O)C(C)C [compound 27] ({Butanoyl(3R-OH)}-EL[dOrn]VD[dL]L-SCH2CH2NHAc)
[2]
  cyclization to macrolactone by excised surfactin TE domain: efficiently cyclized

## D-Phe-Pro-Val-Orn-Leu-D-Phe-Pro-Val-Orn-Leu-SNAC [Example 17]
[1]
  kcat: 12
[1]; read-out: KM
  Km: 5 µM
[1]; cyclization
  KM as compared to Ex. 3: comparable
  reduction in kcat relative to wild-type substrate (Ex. 3): 5 fold

## D-Phe-Pro-Val-Orn-Leu-SNAC [pentapeptide-SNAC]
[1]; incubation of pentapeptide-SNAC with TycC TE
  chain dimerization and subsequent cyclization to gramicidin S: efficient chain dimerization and subsequent cyclization occurred
